Measured values from patent publication US5962284A, “Acrylamidase enzymes” (Ciba Specialty Chemicals Water Treatments Limited, priority 1997, dated 1999).

Experiments:
[1] = system: acrylamidase produced by Rhodococcus erythropolis NCIMB 40889; details: read-out: Km for acrylamide; pH 4.0, 30° C., cell suspension
Source text: (§1) For measurement of Km (see below) the same conditions can be used, except that the acrylamide concentration is of course varied. One unit (U) of amidase activity hydrolyses 1 micromole of acrylamido per minute under the above conditions. The specific activity is the amount of units of activity present per dry gram of cell material. The relative activity is the % activity relative to activity at ph 7.
(§2) In this specification, Km is Km for acrylamide measured at pH 4.0.

[2] = system: acrylamidase produced by Rhodococcus species NCIMB 40755; details: read-out: Km for acrylamide; pH 4.0, 30° C., cell suspension
Source text: as §1, §2

[3] = system: acrylamidase produced by Rhodococcus erythropolis NCIMB 40889; experiment: Adipic acid activity assay (amidase activity at pH 4 with added adipic acid); type: biochemical; details: pH 4, 50 mM acrylamide, 30° C.
Source text: as §1
In this specification, comparison of acrylamidase activity in the presence of adipic acid and in the absence of adipic acid is measured by the following adipic acid activity assay:
To an assay mixture at pH 4 as described for measurement of activity at pH 4 and pH 7 is added adipic acid to give the concentrations required. Cell suspension is then added to the assay mixture. The amidase activity of each suspension is then measured. The relative activity is % activity relative to activity in the absence of adipic acid.

| Compound | Km [1] [mM] | Km [2] [mM] | Relative Activity (%) relative to activity in the absence of adipic acid ([3]; 5 mM adipic acid) [%] | Relative Activity (%) relative to activity in the absence of adipic acid ([3]; 10 mM adipic acid) [%] | Relative Activity (%) relative to activity in the absence of adipic acid ([3]; 15 mM adipic acid) [%] | Relative Activity (%) relative to activity in the absence of adipic acid ([3]; 22.5 mM adipic acid) [%] | Relative Activity (%) relative to activity in the absence of adipic acid ([3]; 25 mM adipic acid) [%] | Relative Activity (%) relative to activity in the absence of adipic acid ([3]; 50 mM adipic acid) [%] |
| --- | --- | --- | --- | --- | --- | --- | --- | --- |
| C=CC(N)=O [acrylamide] | 11.6 | 6 | – | – | – | – | – | – |
| O=C(O)CCCCC(=O)O [Adipic Acid, adipic acid] | – | – | 95 | 69 | 38 | 30 | 29 | 12 |
